Results on 1 compound are retold here after patent publication US9034922B2, “Composition for maintaining function of platelets” (THE UNIVERSITY OF TOKYO, priority 2010, dated 2015).

As a reminder, the IC50 is the concentration at which inhibition is half-maximal.

One data set addresses T1, ADAM17 (Homo sapiens, UniProt P78536).
T1 construct: made in house; host or cells: mammalian cells or insect cells
Kind of data set: ADAM17 inhibition experiment (fluorescent synthetic substrate). In kind it is biochemical. How it is done: The cDNA was incorporated into an expression vector. Then, this vector was transfected into mammalian cells or insect cells, and ADAM17 was expressed and obtained.
Next, the activity of ADAM17 was measured, as follows in the presence or absence of the test substances, in which obtained ADAM17 was used as an enzyme, and a fluorescent synthetic substrate Nma (N-methyl anthranilate)-[…]Dnp (dinitrophenyl)-D-Arg-NH2 containing an ADAM17-cleavage sequence of membrane-bound TNF was used as a substrate.
Specifically, 90 μL of 14 units of an enzyme solution (1 unit is defined as an amount of enzyme degrading […] of the substrate in 1 minute at 25° C.) prepared with Assay Buffer A (50 mmol/L Tris-HCl buffer (pH 7.5) containing 200 mmol/L sodium chloride, 5 mmol/L calcium chloride, 10 μmol/L zinc sulfate, and 2 mg/mL bovine serum albumin) was mixed with 90 μL of the fluorescent synthetic substrate adjusted to be 20 μmol/L with Assay Buffer B (50 mmol/L Tris-HCl buffer (pH 7.5) containing 200 mmol/L sodium chloride, 5 mmol/L calcium chloride, 10 μmol/L zinc sulfate, and 0.05% PLURONIC F-68), and allowed for reaction at 37° C. for 1.5 hours. Thereafter, the enzyme activity was determined by measurement using a fluorometer (Fluoroskan Ascent) under conditions of an excitation wavelength of 355 nm and a measurement wavelength of 460 nm. Then, an inhibition rate was obtained based on the enzyme activities in the presence and absence of the test compounds, and the 50% inhibitory concentration (IC50) was calculated.
A disintegrin and metalloproteinase 17 (ADAM17, TACE) (used was one prepared at Kaken Pharmaceutical Co., Ltd. by employing the genetic recombination in the same way as in Test Example 3. Note that, the same as in Test Example 3, 1 unit is defined as an amount of enzyme degrading 1 pmol of substrate in 1 minute at 25° C.)
(§1) TACE substrate (the same as one used in Test Example 3): excitation wavelength at 355 nm, emission wavelength at 460 nm
(§2) The enzyme reaction was carried out using the enzymes and substrates. Specifically, if necessary, the enzyme was activated in advance with APMA (final concentration 1 mmol/L, p-aminophenylmercuric acetate, manufactured by Sigma-Aldrich Co., A9563) according to information from the manufacturer. Then, in a 96-well plate for fluorescence measurement, 90 μL of an enzyme solution prepared with Assay Buffer A (50 mmol/L Tris-HCl buffer (pH 7.5) containing 200 mmol/L sodium chloride, 5 mmol/L calcium chloride, 10 μmol/L zinc sulfate, and 2 mg/mL bovine serum albumin) was mixed with 90 μL of the substrate adjusted to be 20 μmol/L with Assay Buffer B (50 mmol/L Tris-HCl buffer (pH 7.5) containing 200 mmol/L sodium chloride, 5 mmol/L calcium chloride, 10 μmol/L zinc sulfate, and 0.05% PLURONIC F-68), and incubated for reaction at 25° C. or 37° C. for several hours. Moreover, the fluorescence intensities before and after the reaction were measured using a fluorometer to determine the enzyme activity. An inhibition rate was obtained based on the enzyme activities in the presence and absence of the test substances, and the 50% inhibitory concentration (IC50) was calculated.

Data set [1] has as its target T2, Matrix metalloproteinase 3 (MMP-3) (Homo sapiens, UniProt P08254).
T2 construct: purchased Calbiochem 444217
Kind of data set: Enzyme inhibition experiment, MMP-3. The class given is biochemical. Particulars: 3168 substrate, 37° C., 4 hours. How it is done:
Matrix metalloproteinase 3 (MMP-3) (manufactured by Calbiochem, product number: 444217)
(§3) 3168 substrate (MOCAc-Arg-Pro-Lys-Pro-Val-Glu-Nva-Trp-Arg-Lys(Dnp)-NH2, manufactured by Peptide Institute, Inc.): excitation wavelength at 320 nm, emission wavelength at 405 nm, and 3163 substrate (MOCAc-Pro-Leu-Gly-Leu-A2pr(Dnp)-Ala-Arg-NH2, manufactured by Peptide Institute, Inc.): excitation wavelength at 320 nm, emission wavelength at 405 nm.
as §2

Data set [2] concerns the target T3, Matrix metalloproteinase 13 (MMP-13) (Homo sapiens, UniProt P45452).
T3 construct: purchased Chemicon CC068
Kind of data set: Enzyme inhibition experiment, MMP-13. The class given is biochemical. Particulars: 444221 substrate, 37° C., 4 hours. As for the experimental part: Matrix metalloproteinase 13 (MMP-13) (manufactured by Chemicon, product number: CC068)
as §2, with “activity.” for “activity. An inhibition rate was obtained based on the enzyme activities in the presence and absence of the test substances, and the 50% inhibitory concentration (IC50) was calculated.”

Data set [3] has as its target T4, Matrix metalloproteinase 14 (MMP-14) (Homo sapiens, UniProt P50281).
T4 construct: purchased Calbiochem 475935
Kind of data set: Enzyme inhibition experiment, MMP-14. The following applies: 444221 substrate, 37° C., 5 hours. In kind it is biochemical. As for the experimental part: Matrix metalloproteinase 14 (MMP-14) (manufactured by Calbiochem, product number: 475935)
444221 substrate (DNP-Pro-Cha-Gly-Cys(Me)-His-Ala-Lys(Nma)-NH2, custom synthesis): excitation wavelength at 355 nm, emission wavelength at 460 nm
as §2

In data set [4] the target is T5, Matrix metalloproteinase 17 (MMP-17) (Homo sapiens, UniProt Q9ULZ9).
T5 construct: purchased Calbiochem 475940
T5 sequence (Q9ULZ9 126-298 limits assumed): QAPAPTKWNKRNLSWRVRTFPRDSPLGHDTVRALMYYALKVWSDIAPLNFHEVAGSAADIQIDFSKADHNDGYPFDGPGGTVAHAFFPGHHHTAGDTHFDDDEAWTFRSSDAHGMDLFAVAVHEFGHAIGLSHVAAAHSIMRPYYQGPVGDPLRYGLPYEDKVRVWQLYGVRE
The data set is described as follows: Enzyme inhibition experiment, MMP-17. The following applies: 3163 substrate, 25° C., 5 hours. The class given is biochemical. As for the experimental part:
Matrix metalloproteinase 17 (MMP-17) (manufactured by Calbiochem, product number: 475940)
as §3, §2

Data set [5] addresses T6, A disintegrin and metalloproteinase 10 (ADAM10) (Homo sapiens, UniProt O14672).
T6 construct: purchased Funakoshi Co., Ltd. 936-AD-020
T6 sequence (O14672 214-672 limits assumed): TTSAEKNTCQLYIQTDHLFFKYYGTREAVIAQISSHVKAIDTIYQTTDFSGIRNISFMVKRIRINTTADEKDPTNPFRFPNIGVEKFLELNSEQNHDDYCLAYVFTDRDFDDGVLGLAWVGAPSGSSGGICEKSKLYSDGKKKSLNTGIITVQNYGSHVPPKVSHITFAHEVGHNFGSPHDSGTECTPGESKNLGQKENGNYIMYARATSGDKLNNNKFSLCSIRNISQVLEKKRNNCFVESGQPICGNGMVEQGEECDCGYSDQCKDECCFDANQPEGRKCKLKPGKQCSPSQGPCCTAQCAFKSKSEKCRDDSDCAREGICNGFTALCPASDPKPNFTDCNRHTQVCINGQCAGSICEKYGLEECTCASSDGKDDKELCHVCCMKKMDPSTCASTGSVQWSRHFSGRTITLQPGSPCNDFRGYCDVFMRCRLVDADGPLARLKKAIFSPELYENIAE
The data set is described as follows: Enzyme inhibition experiment, ADAM10. In kind it is biochemical. Particulars: TACE substrate, 25° C., 5 hours. How it is done:
A disintegrin and metalloproteinase 10 (ADAM10) (manufactured by Funakoshi Co., Ltd., product code: 936-AD-020) and
as §1, §2

Data set [6] deals with ES cell-derived platelets (ADAM17-mediated GPIbα shedding). The data set is described as follows: Function-maintaining effect on ES cell-derived platelets in culture system (flow cytometry CD41/CD42b, platelet count). Background: A flow cytometer gives signals particle by particle.
Description: As human ES cells (hES cells), a KhES cell line (KhES-3) established by and provided from Institute for Frontier Medical Sciences, Kyoto University was used.
The human ES cells or the human iPS cells were seeded on the feeder cells such that the cell count was 5×10^4 to 1×10^5/10-cm dish. The cells were cultured in Iscove's Modified Dulbecco's Medium (IMDM, manufactured by Invitrogen Corp/GIBCO) supplemented with 15% FBS (product name: CELLect™ GOLD, manufactured by ICN Biomedicals Inc.), 2 mM L-glut amine (manufactured by Invitrogen Corp.), ITS supplement (10 μg/ml insulin, 5.5 mg/ml human transferrin, 5 ng/ml sodium selenite) (manufactured by Sigma-Aldrich Co.), 50 μg/ml ascorbic acid (Sigma-Aldrich Co.), 0.45 mM α-monothioglycerol (MTG, manufactured by Sigma-Aldrich Co.), and 20 ng/ml vascular endothelial growth factor (VEGF, manufactured by R&D Systems, Inc.). Further, this culturing was carried out at 37° C. in 5% CO2 and 21% O2 (atmospheric oxygen) using a CO2 incubator (product name: HERA CELL 150i, manufactured by Thermo Fisher Scientific K. K.). Then, the medium was replaced every 3 days, and the culturing was continued under the conditions until Day 15 when a large number of sac structures (sac-like structures) containing hematopoietic progenitor cells therein were observed.
Next, after detached from the dish, the sac structures were disrupted and suspended in a 3% FBS-containing phosphate buffer solution (PBS). Then, the suspension was passed through a 40-μm cell strainer (manufactured by BD). The solution thus passed through was centrifuged at 440×g for 10 minutes to collect hematopoietic progenitor cells, and the cells was counted. The hematopoietic progenitor cells were seeded on 10T1/2 cells newly prepared in a 6-well plate (6×10^5 cells/plate) exposed to 50-Gy radiation such that the number of the hematopoietic progenitor cells was 2 to 3×10^4/well. The hematopoietic progenitor cells were further cultured for 8 days in IMDM (manufactured by Invitrogen Corp/GIBCO) supplemented with 15% FBS (product name: CELLect™ GOLD, manufactured by ICN Biomedicals Inc.), 2 mM L-glutamine (manufactured by Invitrogen Corp.), ITS supplement (10 μg/ml insulin, 5.5 mg/ml transferrin, 5 ng/ml sodium selenite) (manufactured by Sigma-Aldrich Co.), 50 μg/ml ascorbic acid (manufactured by Sigma-Aldrich Co.), 0.45 mM MTG (manufactured by Sigma-Aldrich Co.), 100 ng/ml human thrombopoietin (human TPO, manufactured by PeproTech, Inc.), 50 ng/ml human stem cell factor (SCF, manufactured by PeproTech, Inc.), and 25 U/ml heparin. Thereby, megakaryocytes/platelets were induced.
Subsequently, the induced megakaryocytes/platelets were collected with an anticoagulant solution (Acid Citrate Dextrose, ACD), followed by centrifugation at 900 rpm for 10 minutes without a break. The supernatant obtained by the centrifugation was further centrifuged at 1500 rpm for 10 minutes without a break to remove the supernatant. Thereafter, the numbers of megakaryocytes and platelets in the precipitate thus obtained were analyzed by flow cytometry using antibodies for staining.
Note that, in the flow cytometry, FACS Aria manufactured by Becton, Dickinson and Company was used. As the antibodies used to stain the megakaryocytes and the platelets, used were a Phycoerythrin (PE)-modified anti-human CD42a (GPIX) antibody, a PE-modified anti-human CD42b (GPIbα) antibody, and an allophycocyanin (APC)-labelled anti-CD41a (integrin αIIbbeta3 complex, HIP8 clone) antibody (manufactured by BD Bioscience). Additionally, in order to accurately measure the absolute numbers of the megakaryocytes and the platelets, the cells were stained with these antibodies, and the analysis was conducted by flow cytometry using TruCount beads (manufactured by BD Bioscience), also.

T1 sequence (P78536 215-824): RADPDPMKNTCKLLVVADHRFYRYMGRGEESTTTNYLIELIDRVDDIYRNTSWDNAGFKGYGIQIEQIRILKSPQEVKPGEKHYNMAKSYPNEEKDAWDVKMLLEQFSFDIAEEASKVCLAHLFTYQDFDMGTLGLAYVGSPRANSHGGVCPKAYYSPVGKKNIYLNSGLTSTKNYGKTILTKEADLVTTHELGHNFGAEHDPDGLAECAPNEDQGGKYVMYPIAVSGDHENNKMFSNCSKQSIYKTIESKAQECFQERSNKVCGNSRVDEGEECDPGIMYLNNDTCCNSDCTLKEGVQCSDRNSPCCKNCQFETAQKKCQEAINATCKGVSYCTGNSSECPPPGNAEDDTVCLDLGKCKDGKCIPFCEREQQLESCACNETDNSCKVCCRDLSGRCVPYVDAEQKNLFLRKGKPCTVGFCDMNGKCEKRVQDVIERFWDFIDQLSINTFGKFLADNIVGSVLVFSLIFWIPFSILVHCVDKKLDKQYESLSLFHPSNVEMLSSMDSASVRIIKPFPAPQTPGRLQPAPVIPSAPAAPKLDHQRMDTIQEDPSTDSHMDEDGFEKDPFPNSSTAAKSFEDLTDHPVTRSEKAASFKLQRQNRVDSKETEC
T2 sequence (P08254 100-272 limits assumed): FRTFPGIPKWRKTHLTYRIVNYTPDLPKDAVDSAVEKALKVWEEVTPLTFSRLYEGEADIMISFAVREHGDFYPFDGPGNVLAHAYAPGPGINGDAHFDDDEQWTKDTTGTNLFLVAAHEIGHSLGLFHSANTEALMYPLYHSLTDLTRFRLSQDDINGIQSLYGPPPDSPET

Consider `CNC(=O)[C@H](Cc1c[nH]c2ccccc12)NC(=O)[C@@H](CC(=O)NO)CC(C)C` [GM6001, reference compound], for which the IC50 stood at 310 nM on ADAM17; 32 nM in data set [1]; 0.26 nM in data set [2]; 1.6 nM in data set [3]; 3 nM in data set [4]. For the same compound, on ADAM17, the “inhibitory activity on ADAM17 enzyme (in words)” value was “weak”. At ADAM17 (from Table 3), the “specificity to ADAM17 in comparison with metalloproteinases other than ADAM17” value is “non-specifically and strongly inhibited metalloproteinases”. For the same compound, the “IC50 ADAM10” value in data set [5] stood at 410 nM. Besides, the cytotoxicity result in data set [6] (Test Example 5, 50 μM, 8-day addition) is listed as “had cytotoxicity”. The “number of platelets obtained” value in data set [6] (Test Example 5, 8-day addition, 50 μM GM6001 vs 5 μM S-45282) is reported as “fewer platelets than 5 μM S-45282”; in data set [6] (Test Example 5, added for 2 days, 50 μM GM6001, 5 μM S-45282) it was “approximately the same”. In data set [6] (Test Example 5, added for 2 days or 8 days, GM6001 50 μM, S-45282 5 μM or 50 μM), the “inhibition of ADAM17-mediated GPIbα shedding (CD42b(+) percentage)” value is given as “inhibit ADAM17-mediated GPIbα shedding”. The “inhibition of ADAM17-mediated GPIbα shedding” value in data set [6] (Test Example 6, 8 days, S-45457 5 μM or 50 μM, GM6001 50 μM) is “inhibits ADAM17-mediated GPIbα shedding”.
